Reference: US20250222005A1, “METHYLENE BLUE CONTAINING COMPOUNDS FOR THE TREATMENT OF METHAEMOGLOBINAEMIA” (Wis Ta Laboratories Ltd., priority 2022, published 2025)
Values belong to the molecule of their own block, whether it stands above or below them.

Tests used:
methaemoglobin = test: Methaemoglobin (metHb) levels by pulse oximetry in AD trial patients receiving oral LMTM; type: in vivo, human; details: for Methaemoglobin, mean %: Table 5A, patients with SpO2 <94% at baseline; for Methaemoglobin, mean %, post dose: 4 hours post-dose, baseline SpO2 <94%; for Methaemoglobin, mean % ± SE: Table 5B, all patients
Procedure: (§1) Methods: Eighteen AD trial participants randomised to unit 4/75/100/125 mg doses of LMTM had SPO2 levels below 94% at baseline. Patients were routinely monitored by pulse oximetry after 4 hrs, and after 2 and 6 weeks of twice daily dosing. Computational chemistry was used to understand LMT-heme binding. The study design and results from two Phase 3, double-blind, controlled, randomised, studies of LMTM as a potential treatment for AD were described elsewhere (see “Gauthier, S., et al. “Efficacy and safety of tau-aggregation inhibitor therapy in patients with mild or moderate Alzheimer's disease: a randomised, controlled, double-blind, parallel-arm, phase 3 trial.” Lancet 2016; 388:2873-2884.” and “Wilcock, G K, et al. “Potential of low dose leuco-methylthioninium bis(hydromethanesulphonate) (LMTM) monotherapy for treatment of mild Alzheimer's disease: cohort analysis as modified primary outcome in a Phase Ill clinical trial.” Journal of Alzheimer's Disease 2017; 61:435-457.). In summary, 890 mild/moderate AD patients were randomly assigned (3:3:4) to 150 mg/day, 250 mg/day or 8 mg/day (intended as a control) for 15-months (clinicaltrials.gov NCT01689246). Similarly, 800 patients with mild AD were randomly assigned to 200 mg/day or 8 mg/day LMTM for 18-months (clinicaltrials.gov NCT01689233). In both trials, MetHb and SpO2 levels were measured by pulse oximetery (Massimo Corporation rad 57) at screening, baseline (within 1 hour prior to dosing), post-dose during the 4-hour observation, and subsequent clinic visits at 2 and 6 weeks. Statistical analyses were performed using R-version 3.5.1, employing paired samples t-tests to compare mean SpO2 and metHb levels.

heme iron of haemoglobin = heme iron of haemoglobin (Homo sapiens, UniProt P68871+P69905); details: from crystal field theory (Jorgensen); cited from earlier work
[1] = tested on: patients with mild hypoxaemia; test: Peripheral oxygen saturation (SpO2) by pulse oximetry in AD trial patients with baseline SpO2 below 94% receiving oral LMTM; type: in vivo, human; details: for Oxygen saturation, mean %: Baseline (1 hr) 92.167; for Difference in oxygen saturation with respect to baseline: pooled doses; for Oxygen saturation, mean %, post dose: 4 hours post-dose; for Change in mean SpO2 from baseline: four hours
Procedure: as §1

[2] = tested on: oxygen-haemoglobin dissociation curve; test: Estimation of effect of LMT treatment on oxygen-haemoglobin dissociation curve (SpO2 to PaO2 conversion table); parameters: species or system human; details: patients with mild hypoxaemia treated with LMTM; SpO2 plotted at baseline-implied PaO2

Chain of heme iron of haemoglobin (P69905 2-142 limits assumed): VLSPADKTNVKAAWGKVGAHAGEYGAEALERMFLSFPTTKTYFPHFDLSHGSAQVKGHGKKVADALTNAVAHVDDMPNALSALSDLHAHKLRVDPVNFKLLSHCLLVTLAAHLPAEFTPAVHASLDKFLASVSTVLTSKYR
Chain of heme iron of haemoglobin (P68871 2-147 limits assumed): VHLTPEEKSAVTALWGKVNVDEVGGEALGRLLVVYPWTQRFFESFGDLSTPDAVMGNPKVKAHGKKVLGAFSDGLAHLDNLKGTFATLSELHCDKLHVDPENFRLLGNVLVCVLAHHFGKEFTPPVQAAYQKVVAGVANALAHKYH

- Methaemoglobin, mean % (methaemoglobin; LMT dose 4 mg, 4 hr, baseline 0.709): 0.733%
- Methaemoglobin, mean % (methaemoglobin; LMT dose 4 mg, Week 2, baseline 0.709): 0.732%
- Methaemoglobin, mean % (methaemoglobin; LMT dose 4 mg, Week 6, baseline 0.709): 0.769%
- Methaemoglobin, mean % (methaemoglobin; LMT dose 150 mg, 4 hr, baseline 0.721): 0.781%
- Methaemoglobin, mean % (methaemoglobin; LMT dose 150 mg, Week 2, baseline 0.721): 0.835%
- Methaemoglobin, mean % (methaemoglobin; LMT dose 150 mg, Week 6, baseline 0.721): 0.888%
- Methaemoglobin, mean % (methaemoglobin; LMT dose 200 mg, 4 hr, baseline 0.702): 0.760%
- Methaemoglobin, mean % (methaemoglobin; LMT dose 200 mg, Week 2, baseline 0.702): 0.849%
- Methaemoglobin, mean % (methaemoglobin; LMT dose 200 mg, Week 6, baseline 0.702): 0.873%
- Methaemoglobin, mean % (methaemoglobin; LMT dose 250 mg, 4 hr, baseline 0.696): 0.758%
- Methaemoglobin, mean % (methaemoglobin; LMT dose 250 mg, Week 2, baseline 0.696): 0.845%
- Methaemoglobin, mean % (methaemoglobin; LMT dose 250 mg, Week 6, baseline 0.696): 0.858%
- Methaemoglobin, mean %, post dose (methaemoglobin; single 4 mg dose, pre-dose 0.70): 0.87%
- Methaemoglobin, mean %, post dose (methaemoglobin; single high dose (indicated as 100 mg), pre-dose 0.90): 0.65%
SMILES: CN(C)c1ccc2c(c1)Sc1cc(N(C)C)ccc1N2 [LMT, hydromethylthionine]
- Estimated field factor of the LMT-heme interaction (heme iron of haemoglobin): 1.2-1.5

- Methaemoglobin, mean % ± SE (methaemoglobin; 8 mg (per day), 4 hr, baseline 0.709 ± 0.017, p 0.09732): 0.732 ± 0.017%
- Methaemoglobin, mean % ± SE (methaemoglobin; 8 mg (per day), Week 2, baseline 0.709 ± 0.017, p 0.1326): 0.733 ± 0.018%
- Methaemoglobin, mean % ± SE (methaemoglobin; 8 mg (per day), Week 6, baseline 0.709 ± 0.017, p 0.0006916): 0.770 ± 0.019%
- Methaemoglobin, mean % ± SE (methaemoglobin; 150 mg (per day), 4 hr, baseline 0.721 ± 0.029, p 0.02212): 0.7811 ± 0.029%
- Methaemoglobin, mean % ± SE (methaemoglobin; 150 mg (per day), Week 2, baseline 0.721 ± 0.029, p <0.0001): 0.831 ± 0.032%
- Methaemoglobin, mean % ± SE (methaemoglobin; 150 mg (per day), Week 6, baseline 0.721 ± 0.029, p <0.0001): 0.889 ± 0.034%
- Methaemoglobin, mean % ± SE (methaemoglobin; 200 mg (per day), 4 hr, baseline 0.702 ± 0.025, p 0.01967): 0.760 ± 0.023%
- Methaemoglobin, mean % ± SE (methaemoglobin; 200 mg (per day), Week 2, baseline 0.702 ± 0.025, p <0.0001): 0.849 ± 0.027%
- Methaemoglobin, mean % ± SE (methaemoglobin; 200 mg (per day), Week 6, baseline 0.702 ± 0.025, p <0.0001): 0.873 ± 0.030%
- Methaemoglobin, mean % ± SE (methaemoglobin; 250 mg (per day), 4 hr, baseline 0.696 ± 0.028, p 0.005868): 0.758 ± 0.028%
- Methaemoglobin, mean % ± SE (methaemoglobin; 250 mg (per day), Week 2, baseline 0.696 ± 0.028, p <0.0001): 0.837 ± 0.034%
- Methaemoglobin, mean % ± SE (methaemoglobin; 250 mg (per day), Week 6, baseline 0.696 ± 0.028, p <0.0001): 0.851 ± 0.033%
- Difference in metHb levels between baseline and 4-hours post-dose (methaemoglobin; both treatment groups (4 mg and high single doses), patients with baseline SpO2 <94%): no consistent difference
- Effect on metHb levels over 6 weeks (methaemoglobin; higher doses (150, 200 and 250 mg/day), baseline SpO2 <94% subgroup, not statistically significant): systematically increased
SMILES: CN(C)c1ccc2c(c1)Sc1cc(N(C)C)ccc1N2 [LMTM, leuco-methylthioninium bis(hydromethanesulfonate)]
- Enhancement of oxygen saturation ([1]; patients with chronic hypoxaemia, single doses 4-125 mg and 6 weeks twice daily): about 3%
- Oxygen saturation, mean % ([1]; pooled data all doses (8 mg/day and 150-250 mg/day), Week 2): 95.400%
- Oxygen saturation, mean % ([1]; pooled data all doses (8 mg/day and 150-250 mg/day), Week 6): 95.571%
- Oxygen saturation, mean % ([1]; pooled data all doses, Baseline (4 hr)): 95.333%
- Difference in oxygen saturation with respect to baseline ([1]; week 2, p=0.0034): +3.17%
- Difference in oxygen saturation with respect to baseline ([1]; week 6, p=0.0005): +3.23%
- Oxygen saturation, mean %, post dose ([1]; single 4 mg dose, patients with baseline SpO2 <94%, pre-dose 91.71): 95.43%
- Change in mean SpO2 from baseline ([1]; single 4 mg dose, p=0.0205): +3.72%
- Change in mean SpO2 from baseline ([1]; single high dose (75, 100 or 125 mg), p=0.0045): +2.82%
- Oxygen saturation, mean %, post dose ([1]; single high dose (75/100/125 mg indicated as 100 mg), baseline SpO2 <94%, pre-dose 92.45): 95.27%
- Implied effect of treatment on the oxygen-haemoglobin dissociation curve [2]: implied left-shift
